Assays:
ALDH2 [1] = biological target: T1, ALDH2 (Homo sapiens, UniProt P05091); assay: ALDH2 enzymatic activity assay (340 nm) on mitochondrial lysate of HMVEC; assay type: cell-based
T1 construct: Cells obtained were human microvascular endothelial cells (HMVECs); endogenous in cells; host or cells: HMVEC / HMVEC-L (human lung microvascular endothelial cells)
T1 sequence (P05091 18-517): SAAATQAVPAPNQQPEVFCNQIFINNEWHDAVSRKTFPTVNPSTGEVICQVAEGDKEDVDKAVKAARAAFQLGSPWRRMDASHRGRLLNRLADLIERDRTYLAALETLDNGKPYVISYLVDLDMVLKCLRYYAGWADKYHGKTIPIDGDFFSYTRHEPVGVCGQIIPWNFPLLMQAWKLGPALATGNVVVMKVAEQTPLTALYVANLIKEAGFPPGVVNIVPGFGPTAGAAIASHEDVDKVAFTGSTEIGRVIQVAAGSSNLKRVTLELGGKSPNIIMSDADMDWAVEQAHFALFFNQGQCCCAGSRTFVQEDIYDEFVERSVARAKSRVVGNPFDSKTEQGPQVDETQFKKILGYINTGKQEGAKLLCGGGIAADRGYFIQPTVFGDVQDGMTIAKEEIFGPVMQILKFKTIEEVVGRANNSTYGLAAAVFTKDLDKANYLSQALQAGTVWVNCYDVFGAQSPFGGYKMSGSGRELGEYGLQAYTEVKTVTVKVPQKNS
Protocol: (§1) Cells obtained were human microvascular endothelial cells (HMVECs). Cell culture medium was EBM-2 containing 10% FBS plus antibiotics. Assays were MitoSOX, JC1, Histology, Western blot, and ALDH2 activity. Antibodies used were mouse anti-ALDH2 antibody, Cytochrome C, and Beclin (cell signaling).
(§2) HMVECs were seeded and, after reaching confluence, treated with DMSO and Alda-1. Cells were then exposed to normoxia or hyperoxia at different time points. After 24, 48, and 72 hours, cells were collected for mitochondrial analyses.
(§3) HMVEC's were preserved in EGM-2 MV media (Lonza, Wakersville, Md.) and supplemented with FBS (25 ml), Hydrocortisone (0.2 ml), hFGF-B (2.0 ml), VEGF (0.5 ml), R3 IGF-1 (0.5 ml), Ascorbic acid (0.5 ml), hEGF (0.5 ml), GA-1000 (0.5 ml) at 37° C. in a 5% carbon dioxide-humidified incubator to maintain sufficient cell growth. The cultured cells were validated for confluence (around 70%) and exposed to hyperoxia for 48 hours with and without Alda-1.
The enzymatic activity of ALDH2 was measured by transformation of acetaldehyde to acetic acid (Chen et al., 2008). The HMVEC-L cells were cultured as mentioned above, followed by 300 μl of buffer (10 mM DTT, 100 mM Tris-HCl pH 8.0, 20% glycerol, 1% Triton X-100) and centrifuged at 55000 g for 30 minutes at 4° C. […] The specificity of enzyme reaction was expressed as nmol NADH/minute/mg protein.

[2] = tested on: human microvascular endothelial cells (HMVEC); assay: JC-1 staining, mitochondrial membrane potential; assay type: cell-based
Protocol: as §1, §2
HMVEC-L cells were maintained in a EGM-2 (Lonza) media supplemented with FBS (25 ml), Hydrocortisone (0.2 ml), hFGF-B (2.0 ml), VEGF (0.5 ml), R3 IGF-1 (0.5 ml), Ascorbic acid (0.5 ml), hEGF (0.5 ml), GA-1000 (0.5 ml) at 37° C. in a 5% carbon dioxide humidified incubator to maintain a sufficient cell growth. The HMVEC-L cells were plated at density of 1×10,000 cells in a cell view dish with glass bottom (Thomas scientific). When cells attained 70% confluency, they were exposed to hyperoxia for 48 hours with Alda-1 and without Alda-1. Following exposure to hyperoxia, the HMVEC-L cells were washed by HBSS solution (without Ca+ and Mg+) (Gibco). […] The live cell imaging was conducted using fluorescence microscopy (Olympus). The green and red images were captured in fluorescence and images were quantified by image J by red to green ratio.

cytochrome C = assay: Western blot of whole cell lysate, cytochrome C; assay type: cell-based, human
Protocol: as §1, §2
The HMVEC-L cells were cultured and after reaching confluence (70%), were exposed to hyperoxia with or without Alda-1 for 48 hours. The concentration was determined by the proOX p100 sensor (Biospherix). After hyperoxia, the cell pellets were collected by centrifugation and the cell pellets were suspended in lysis buffer (20 mM Tris HCL, pH7.4, 150 mM Nacl, 0.5% Triton-x 100) and the supernatant was collected after centrifugation at high speed (14000 g) for 15 minutes at 4° C. The amount of protein was calculated by BCA assay kit (Pierce, Rockford, Ill.). […] The bands were developed by pierce EC1 (Thermo Fischer scientific) and films with protein bands were scanned and analyzed densitometrically by NIH ImageJ software. The ratio of protein to loading control was taken and analyzed in percentages.

Bax = assay: Western blot of whole cell lysate, Bax; assay type: cell-based, human; settings: HMVEC pretreated with 20 μM, hyperoxia 48 hours, normalized to β-actin
Protocol: (§4) The HMVEC-L cells were cultured and after reaching confluence (70%), were exposed to hyperoxia with or without Alda-1 for 48 hours. The concentration was determined by the proOX p100 sensor (Biospherix). After hyperoxia, the cell pellets were collected by centrifugation and the cell pellets were suspended in lysis buffer (20 mM Tris HCL, pH7.4, 150 mM Nacl, 0.5% Triton-x 100) and the supernatant was collected after centrifugation at high speed (14000 g) for 15 minutes at 4° C. The amount of protein was calculated by BCA assay kit (Pierce, Rockford, Ill.). Equivalent amount of protein (15 μg) subjected to SDS-PAGE using between 4-20% tris-glycine gel (Bio-rad) after which electro transfer with PVDF membrane was performed, followed by blocking in 5% skim milk with washes with TBST. The membranes were treated with primary and secondary antibodies. The bands were developed by pierce EC1 (Thermo Fischer scientific) and films with protein bands were scanned and analyzed densitometrically by NIH ImageJ software. The ratio of protein to loading control was taken and analyzed in percentages.

ALDH2 [3] = assay: Western blot of whole cell lysate, ALDH2 expression; assay type: cell-based, human; settings: HMVEC pretreated with 20 μM, hyperoxia 48 hours, normalized to β-actin
Protocol: as §4

[4] = tested on: human microvascular endothelial cells (HMVECs); assay: MitoSOX mitochondrial ROS production; assay type: cell-based; settings: Example 1
Protocol: as §1, §2

4HNE = assay: Oxidative stress assay, 4HNE adduct competitive ELISA on whole cell lysate; assay type: cell-based, human; settings: HMVEC pretreated with 20 μM, hyperoxia 48 hours
Protocol: as §3
The samples of whole cell lysate (50 μg) were seeded in each well. Oxidative stress was measured by an oxiselect 4HNE adduct competitive ELISA kit (Cell Biolabs), according to the instructions of kit.

[5] = tested on: hyperoxia-induced acute lung injury; assay: Example 4: mice exposed to hyperoxia 48 hours, lung lysate immunoblot and BAL fluid analysis; assay type: in vivo, C57BL/6 mice; settings: 20 mM via alzet pumps
Protocol: C57BL/6 mice were exposed to hyperoxia for 48 hours with DMSO (Control) and Alda-1 (20 mM) via alzet pumps on the dorsal side of mice. The mice were divided into four groups: normoxia+DMSO (room air), normoxia+Alda-1, hyperoxia+DMSO, and hyperoxia+Alda-1. The lungs were harvested and the bronchoalveolar lavage (BAL) fluid was collected and analyzed by immunoblot and cytokine levels.

hyperoxia-induced damage = assay: Example 5: mice exposed to hyperoxia 48 hours, lung lysate immunoblot; assay type: in vivo, C57BL/6 mice; settings: 20 μM via Alzet pumps
Protocol: C57BL/6 mice were pretreated with DMSO (control) and 20 μM Alda-1 (administered via Alzet pumps), then exposed to hyperoxia for 48 hours. The mice were divided into three groups: Room air, hyperoxia (48 hour)+DMSO, and hyperoxia (48 hour)+Alda-1. The lung tissues were harvested, and lysates evaluated by immunoblot analysis.

acute lung injury = assay: Example 6: mice exposed to 100% oxygen 48 hours, BAL fluid, Diff Kwik staining, H&E staining, western blot; assay type: in vivo, C57BL/6 mice; settings: 20 μM via osmotic pumps
Protocol: The C57BL/6 mice were embedded with osmotic pumps and continuously injected with either DMSO or Alda-1 (20 μM), then they were exposed to 100% oxygen 48 hours. The lung samples, as well as Bronchial Alveolar Lavage Fluid, were collected for the evaluation of infiltration of cytokines, inflammation, autophagy, and apoptosis by Diff Kwik staining, H&E staining, and western blot.

[6] = HMVECs, Example 1, hyperoxia, 24 and 48 hours

`O=C(NCc1ccc2c(c1)OCO2)c1c(Cl)cccc1Cl` [Alda-1, N-(1,3-Benzodioxol-5-ylmethyl)-2,6-dichlorobenzamid] was tested, and the “increase in ALDH2 activity compared to hyperoxia without pretreatment” value (ALDH2 [1]; HMVEC mitochondrial extract, 20 μM, hyperoxia 48 hours) was 45%, the ALDH2 activity (ALDH2 [1]; HMVECs, Example 1, during both normoxia and hyperoxia) was “elevated” and the “increase in mitochondrial membrane potential (JC-1 red to green ratio) compared to hyperoxia without treatment” value ([2]; HMVEC, 20 μM, hyperoxia 48 hours) was 1.62 fold. For the same molecule, the mitochondrial membrane potential [2, 6] was “rescued”, the “decrease in cytochrome C compared to hyperoxia without pretreatment” value (cytochrome C; HMVEC pretreated with 20 μM, hyperoxia 48 hours, normalized to β-actin) was 64% and the “Cytochrome C release” value (cytochrome C; [6]) was “decreased”. The “decrease in Bax compared to hyperoxia without pretreatment” value (Bax) was 25%, the “effect on ALDH2 expression in hyperoxia” value (ALDH2 [3]) was “no effect” and the “mitochondrial ROS production” value [4] was “suppressed”. The “decrease in 4HNE accumulation compared to untreated HMVEC exposed to hyperoxia” value (4HNE) was 26%, the “Drp1 level in lung lysate vs DMSO” value [5] was “decreased levels” and the “OPA1 level in lung lysate vs DMSO” value [5] was “decreased levels”. For the same molecule, the “infiltration of macrophages in BAL fluid vs DMSO” value [5] was “less infiltration”, the “PTEN-induced kinase 1 (PINK1) level vs hyperoxic controls” value (hyperoxia-induced damage) was “decrease” and the “mitofusin 1 (MFN1) level in lung lysates vs hyperoxia only” value (hyperoxia-induced damage) was “decreased levels”. The “mitofusin 2 (MFN2) level in lung lysates vs hyperoxia only” value (hyperoxia-induced damage) was “decreased levels”, the “LC3B (western blot)” value (acute lung injury) was “reduced” and the “NF-κB-p65 (western blot)” value (acute lung injury) was “reduced”. The autophagy (acute lung injury) was “decrease”, the “cytochrome C release (western blot)” value (acute lung injury) was “reduced” and the “cytokine and neutrophil infiltration and inflammation, DMSO mice vs Alda-1 mice” value (acute lung injury) was “more cytokine and neutrophil infiltration and elevated inflammation than mice treated with Alda-1”. For the same molecule, the inflammation (acute lung injury) was “decrease” and the oxidative stress (acute lung injury) was “decrease”.

Source: US11185528B2, “ALDA-1 treatment and prevention of pulmonary disease” (University of South Florida, priority 2018, dated 2021)
